Viability and MTD data for eight compounds are collected here from patent US6645983B1, “Pharmaceutical compositions comprising 4-quinolones for treating cancers” (Laboratoire L. Lafon, priority 1999, dated 2003).

The subject of data set [1] is A-427. Nature of the data set: MTT test, cytotoxic activity on non-clonogenic cell lines. In kind it is cell-based. The conditions noted are these: Homo sapiens, 10^−5 M, mean value. An outline of the steps: (§1)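 Human cancer lines seeded at 20 000–50 000 cells/ml, allowed 24 h to attach, then exposed to compounds at 10^−5 to 10^−10 M versus solvent control.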
The subject of data set [2] is A549. Described as above. In kind it is cell-based. The conditions noted are these: Homo sapiens, 10^−5 M, mean value. An outline of the steps:
as §1

The test system of data set [3] is HCT-15. The description is as above. The conditions noted are these: Homo sapiens, mean value. The format is cell-based. An outline of the steps: as §1
Data set [4] relates to LoVo. Described as above. In kind it is cell-based. Particulars: Homo sapiens, 10^−5 M, mean value. An outline of the steps:
as §1

In data set [5] the test system is MCF7. The data set is described as above. The conditions noted are these: Homo sapiens, 10^−5 M, mean value. The format is cell-based. An outline of the steps: as §1
The test system of data set [6] is PC-3. Described as above. The format is cell-based. Particulars: Homo sapiens, 10^−5 M, mean value. An outline of the steps: as §1
Data set [7] deals with T-47D. The data set is described as above. The format is cell-based. Particulars: Homo sapiens, T47D, 10^−5 M, mean value. An outline of the steps: as §1
The subject of data set [8] is U-373MG. Described as above. The format is cell-based. The conditions noted are these: Homo sapiens, U373 MG, 10^−5 M, mean value. An outline of the steps: as §1
The test system of data set [9] is U-87MG. The description is as above. In kind it is cell-based. The conditions noted are these: Homo sapiens, 10^−5 M, mean value. An outline of the steps: as §1
Data set [10] concerns SW1088. The data set is described as above. The conditions noted are these: Homo sapiens, 10^−5 M, mean value. In kind it is cell-based. An outline of the steps: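 Human astrocytoma SW1088 cells seeded, grown 24 h at 37° C, 5% CO2, then exposed to compounds at 10^−5 to 10^−10 M versus solvent control. Viability by MTT reduction: 3 h MTT incubation, formazan dissolved in DMSO and read by spectrophotometry.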

Data set [11] relates to J82. The description is as above. In kind it is cell-based. Particulars: Homo sapiens, 10^−5 M, mean value. An outline of the steps: (§2)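 Human bladder cancer lines were seeded at 20 000–50 000 cells/ml and, after 24 h, exposed to compounds at 10^−5 to 10^−10 M against a solvent control. Formazan was dissolved in DMSO and viability was read by spectrophotometric optical density.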

In data set [12] the test system is T24. Described as above. The conditions noted are these: Homo sapiens, T-24, 10^−5 M, mean value. In kind it is cell-based. An outline of the steps:
as §2

Data set [13] in a line: Determination of the maximum tolerated dose (MTD). Particulars: B6D2F1/Jico, mouse, in vivo, ip; single intraperitoneal administration, doses 2.5 to 160 mg/kg, survival over 14 days. An outline of the steps: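 Mice were 4- to 6-week-old B6D2F1/Jico. They received a single intraperitoneal dose of 2.5 to 160 mg/kg, and survival and body weight were followed for 14 days. MTD is given in mg/kg and is capped at 160 mg/kg by default.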

The mark [14] stands for this setting: 72 hours of incubation, control condition = 100%, read-out: mean optical density as percentage of control, A-427.
Where [15] appears, read: 72 hours of incubation, control condition = 100%, read-out: mean optical density as percentage of control, A549.
The mark [16] stands for this setting: 10^−5 M, 72 hours of incubation, control condition = 100%, read-out: mean optical density as percentage of control, HCT-16.
Setting [17] is: 72 hours of incubation, control condition = 100%, read-out: mean optical density as percentage of control, LoVo.
Where [18] appears, read: 72 hours of incubation, control condition = 100%, read-out: mean optical density as percentage of control, MCF7.
Where [19] appears, read: 72 hours of incubation, control condition = 100%, read-out: mean optical density as percentage of control, PC-3.
The mark [20] stands for this setting: 72 hours of incubation, control condition = 100%, read-out: mean optical density as percentage of control, T-47D.
The mark [21] stands for this setting: 72 hours of incubation, control condition = 100%, read-out: mean optical density as percentage of control, U-373MG.
Where [22] appears, read: U-87 MG, 72 hours of incubation, control condition = 100%, read-out: mean optical density as percentage of control, U-87MG.
Setting [23] is: 72 hours of incubation, control condition = 100%, read-out: mean optical density as percentage of control, SW1088.
Setting [24] is: 72 hours of incubation, control condition = 100%, read-out: mean optical density as percentage of control, J82.
Setting [25] is: 72 hours of incubation, control condition = 100%, read-out: mean optical density as percentage of control, T24.
Where [26] appears, read: 72 hours incubation, MTT, read-out: mean optical density, expressed as percentage relative to the mean optical density under the control condition (100%).
Setting [27] is: HCT-16, 10^−5 M, 72 hours incubation, MTT, read-out: mean optical density, expressed as percentage relative to the mean optical density under the control condition (100%).
[28] abbreviates: T-47D, 72 hours incubation, MTT, read-out: mean optical density, expressed as percentage relative to the mean optical density under the control condition (100%).
Setting [29] is: U-373MG, 72 hours incubation, MTT, read-out: mean optical density, expressed as percentage relative to the mean optical density under the control condition (100%).
The mark [30] stands for this setting: U-87MG, 72 hours incubation, MTT, read-out: mean optical density, expressed as percentage relative to the mean optical density under the control condition (100%).
The mark [31] stands for this setting: T24, 72 hours incubation, MTT, read-out: mean optical density, expressed as percentage relative to the mean optical density under the control condition (100%).

Like-named read-outs stand apart in the source and are kept apart here.

As a reminder, the MTD is the highest dose tested that stayed within the study's limit of toxicity. Low readings indicate poorer tolerability, high ones better tolerability. Take `CCc1ccc(OC)c2c1c(=O)c(-c1ccc(OC)cc1)cn2C` [CRL8414, 5-Ethyl-8-methoxy-3-(4-methoxyphenyl)-1-methyl-1,4-dihydro-4-quinolinone]: the viability at 10 µM was 82.2% in data set [1] (setting [14]); 71.8% in [2] (setting [15]); 83.4% in [3] (setting [16]); 84.2% in data set [4] (setting [17]); 104% in [5] (setting [18]); 94.3% in [6] (setting [19]). Further, the viability at 10 µM in data set [7] (setting [20]) turned out to be 96.2%; in data set [8] (setting [21]), 81.7%; in data set [9] (setting [22]) it was 81.2%; in data set [10] (setting [23]), 94.4%; in [11] (setting [24]), 110%; in data set [12] (setting [25]), 97.5%. The MTD at 14 day in [13] was more than 160 mg/kg.

As to `COc1ccc(-c2cn(CCCC#N)c3cc(OC)cc(OC)c3c2=O)cc1` [CRL8420, 4-[5,7-Dimethoxy-3-(4-methoxyphenyl)-4-oxo-1,4-dihydro-1-quinolinyl]butanenitrile], the viability at 10 µM came out at 102% in [1] (setting [14]); 94.5% in data set [2] (setting [15]); 109% in data set [3] (setting [16]); 81.2% in data set [4] (setting [17]); 103% in [5] (setting [18]); 86% in data set [6] (setting [19]). Moreover, the viability at 10 µM came out at 104% in [7] (setting [20]); 96.6% in [8] (setting [21]); 92.9% in data set [9] (setting [22]); 117% in [10] (setting [23]); 92.3% in data set [11] (setting [24]); 111% in data set [12] (setting [25]). In data set [13], the MTD at 14 day is more than 160 mg/kg.

On to `COc1ccc(-c2cn(C)c3cc(OC)cc(NCc4ccccc4)c3c2=O)cc1` [CRL8424, 5-Benzylamino-7-methoxy-3-(4-methoxyphenyl)-1-methyl-1,4-dihydro-4-quinolinone], for which the viability at 10 µM in [1] (setting [14]) worked out at 72.7%; in [2] (setting [15]) it was 111%; in [3] (setting [16]), 49.8%; in [4] (setting [17]) it was 69.8%; in data set [5] (setting [18]), 95.4%; in data set [6] (setting [19]), 108%. The viability at 10 µM in data set [7] (setting [20]) amounted to 108%; in [8] (setting [21]), 82.5%; in [9] (setting [22]) it was 87.9%; in data set [10] (setting [23]), 82.7%; in data set [11] (setting [24]) it was 77.9%; in data set [12] (setting [25]) it was 102%. Besides, in data set [13], the MTD at 14 day is more than 160 mg/kg.

Take `COc1ccc(-c2cn(C)c3cc(OC)cc(N4CCCCC4)c3c2=O)cc1` [CRL8425, 7-Methoxy-3-(4-methoxyphenyl)-1-methyl-5-piperidino-1,4-dihydro-4-quinolinone]: the viability at 10 µM in data set [1] (setting [14]) was 81.9%; in data set [2] (setting [15]), 80.2%; in [3] (setting [16]) it was 78.9%; in data set [4] (setting [17]), 71%; in data set [5] (setting [18]), 102%; in [6] (setting [19]) it was 88.2%. Besides, the viability at 10 µM was found to be 97.3% in data set [7] (setting [20]); 82.6% in data set [8] (setting [21]); 92.6% in data set [9] (setting [22]); 85.4% in data set [10] (setting [23]); 71.9% in data set [11] (setting [24]); 98.2% in data set [12] (setting [25]). This compound displayed an MTD at 14 day in data set [13] of more than 160 mg/kg.

Turning to `COc1ccc(-c2cn(C)c3cc(OC)cc(N4CCCC4)c3c2=O)cc1` [CRL8434, 7-Methoxy-3-(4-methoxyphenyl)-1-methyl-5-pyrrolidino-1,4-dihydro-4-quinolinone], the viability at 10 µM worked out at 110% in data set [1] (setting [14]); 99% in data set [2] (setting [15]); 101% in data set [3] (setting [16]); 106% in data set [4] (setting [17]); 96.2% in [5] (setting [18]); 113% in data set [6] (setting [19]). Also, the viability at 10 µM in data set [7] (setting [20]) was found to be 85.8%; in data set [8] (setting [21]), 92.2%; in data set [9] (setting [22]), 89.7%; in [10] (setting [23]), 99.9%; in [11] (setting [24]), 99.3%; in data set [12] (setting [25]) it was 98.7%. Moreover, the MTD at 14 day in data set [13] was more than 160 mg/kg.

As to `COc1ccc(-c2cn(C)c3cc(OC)cc(N4CCOCC4)c3c2=O)cc1` [CRL8435, 7-Methoxy-3-(4-methoxyphenyl)-1-methyl-5-morpholino-1,4-dihydro-4-quinolinone], the viability at 10 µM in data set [1] (setting [14]) was 115%; in data set [2] (setting [15]) it was 96.7%; in [3] (setting [16]), 101%; in [4] (setting [17]), 106%; in data set [5] (setting [18]), 93.6%; in [6] (setting [19]) it was 105%. In addition, the viability at 10 µM in data set [7] (setting [20]) stood at 95.7%; in data set [8] (setting [21]) it was 85%; in data set [9] (setting [22]), 85%; in data set [10] (setting [23]), 97.3%; in data set [11] (setting [24]) it was 100%; in data set [12] (setting [25]), 89.4%. Moreover, the MTD at 14 day in data set [13] is more than 160 mg/kg.

Consider `COc1ccc(-c2cn(C)c3cc(OC)cc(N4CCN(C)CC4)c3c2=O)cc1` [CRL8436, 7-Methoxy-3-(4-methoxyphenyl)-1-methyl-5-(1-methyl-piperazino)-1,4-dihydro-4-quinolinone], for which the viability at 10 µM in data set [1] (setting [26]) turned out to be 109%; in [2] (setting [26]) it was 101%; in [3] (setting [27]), 101%; in data set [4] (setting [26]) it was 108%; in [5] (setting [26]) it was 96.4%; in data set [6] (setting [26]), 99.9%. The viability at 10 µM in [7] (setting [28]) turned out to be 89.4%; in data set [8] (setting [29]), 97.2%; in data set [9] (setting [30]) it was 97.3%; in data set [10] (setting [26]), 102%; in data set [11] (setting [26]), 101%; in [12] (setting [31]), 99.2%. Further, the MTD at 14 day in data set [13] is more than 160 mg/kg.

On to `CCN(CC)c1cc(OC)cc2c1c(=O)c(-c1ccc(OC)cc1)cn2C` [CRL8437, 5-Diethylamino-7-methoxy-3-(4-methoxyphenyl)-1-methyl-1,4-dihydro-4-quinolinone], for which the viability at 10 µM in data set [1] (setting [26]) turned out to be 108%; in [2] (setting [26]) it was 102%; in data set [3] (setting [27]), 110%; in data set [4] (setting [26]) it was 105%; in data set [5] (setting [26]), 97.7%; in data set [6] (setting [26]), 94.1%. The viability at 10 µM is 92.1% in data set [7] (setting [28]); 93.2% in data set [8] (setting [29]); 99.4% in data set [9] (setting [30]); 99.7% in data set [10] (setting [26]); 98.7% in data set [11] (setting [26]); 93.1% in data set [12] (setting [31]). Also, the MTD at 14 day in [13] was more than 160 mg/kg.
